Test results published in patent publication US20040121994A1, “Novel amides that activate soluble guanylate cyclase” (priority 2002, published 2004).

Key:
[1] = biological target: T1, soluble guanylate cyclase (sGC), α1 and β1 subunits of guanylate cyclase expressed in Sf9 cells (Homo sapiens, UniProt Q02108+Q02153); test: Guanylate cyclase assay (formation of cyclic GMP from GTP); format: biochemical; conditions: for Mean activation at 100 μM: (activity of compound at 100 μM with 1 μM SNP)−(activity of compound at 100 μM)/(activity of SNP at 1 μM)−(basal activity of sGC); for Mean efficacy of compound combined with 1 μM of SNP, [%]: compound at 100 μM with 1 μM sodium nitro prusside (SNP); for Emax at 100 µM: read-out: Mean basal efficacy of compound alone at 100 μM, [%]
T1 construct: made in house; host or cells: Sf9 insect cells (baculovirus co-infection)
T1 sequence (Q02108 1-690): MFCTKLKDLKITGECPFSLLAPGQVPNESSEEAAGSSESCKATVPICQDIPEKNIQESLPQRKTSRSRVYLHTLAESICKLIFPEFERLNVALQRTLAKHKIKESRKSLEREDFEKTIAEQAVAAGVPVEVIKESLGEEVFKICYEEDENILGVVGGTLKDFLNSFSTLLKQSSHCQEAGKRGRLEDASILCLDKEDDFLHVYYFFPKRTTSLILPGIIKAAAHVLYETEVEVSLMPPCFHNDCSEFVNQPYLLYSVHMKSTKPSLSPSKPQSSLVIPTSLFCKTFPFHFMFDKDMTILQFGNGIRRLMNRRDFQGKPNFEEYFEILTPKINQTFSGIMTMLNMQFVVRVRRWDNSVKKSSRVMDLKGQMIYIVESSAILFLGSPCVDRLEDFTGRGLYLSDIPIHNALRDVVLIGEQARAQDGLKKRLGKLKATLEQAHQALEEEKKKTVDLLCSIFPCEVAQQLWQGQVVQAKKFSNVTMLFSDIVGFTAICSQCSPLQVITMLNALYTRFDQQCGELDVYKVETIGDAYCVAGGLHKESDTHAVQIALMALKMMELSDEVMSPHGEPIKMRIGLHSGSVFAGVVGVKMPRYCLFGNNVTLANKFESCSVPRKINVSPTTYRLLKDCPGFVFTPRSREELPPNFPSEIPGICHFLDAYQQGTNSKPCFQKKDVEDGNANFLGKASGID
T1 sequence (Q02153 1-619): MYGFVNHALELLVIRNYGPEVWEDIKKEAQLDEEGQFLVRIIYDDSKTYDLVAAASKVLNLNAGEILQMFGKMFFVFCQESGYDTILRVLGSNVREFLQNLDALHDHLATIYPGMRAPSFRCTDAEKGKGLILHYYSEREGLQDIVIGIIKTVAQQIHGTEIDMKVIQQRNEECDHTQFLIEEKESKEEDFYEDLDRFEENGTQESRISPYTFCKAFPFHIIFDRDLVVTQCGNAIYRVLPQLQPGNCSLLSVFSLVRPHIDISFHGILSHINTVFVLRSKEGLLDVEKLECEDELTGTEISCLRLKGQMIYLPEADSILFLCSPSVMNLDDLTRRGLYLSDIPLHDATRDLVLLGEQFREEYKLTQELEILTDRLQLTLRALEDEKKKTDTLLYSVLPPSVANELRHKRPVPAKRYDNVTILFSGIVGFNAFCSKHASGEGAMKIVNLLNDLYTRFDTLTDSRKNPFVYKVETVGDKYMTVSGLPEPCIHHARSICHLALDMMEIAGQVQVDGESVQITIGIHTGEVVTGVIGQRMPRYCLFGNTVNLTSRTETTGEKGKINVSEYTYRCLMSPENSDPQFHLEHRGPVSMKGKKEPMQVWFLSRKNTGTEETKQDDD
Method in brief: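 Sf9 high-speed supernatant with human sGC α1/β1 converted 1 mM GTP to cGMP over 15 min at 37 °C (50 mM Tris pH 7.6, 4 mM MgCl2, 0.5 mM IBMX); cGMP by enzyme immunoassay. Compounds at 100 μM, with or without 1 μM SNP; activity expressed relative to 100 μM YC-1 (no SNP) as 100%.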

[2] = normalized with the activity of 100 μM YC-1 (without SNP) as 100%
[3] = compound at 100 μM without SNP, normalized with the activity of 100 μM YC-1 (without SNP) as 100%

Row | Compound | Mean activation at 100 μM [1] | Mean efficacy of compound combined with 1 μM of SNP, [%] [1, 2] [%] | Emax at 100 µM [1, 3] [%] | melting point [°C] | Mean basal efficacy of compound alone at 100 μM, [%] [1, 3] [%]
1 | O=C(/C=C/c1ccccc1Sc1ccc(Cl)cc1Cl)NCCCCO [Example 29, (2E)-3-{2-[(2,4-dichlorophenyl)thio]phenyl}-N-(4-hydroxybutyl)acrylamide] | 2.9 | 110 | 69 | 68 to 71 | 
2 | O=C(/C=C/c1ccccc1Sc1ccc(Cl)cc1)NC1CCC(O)CC1 (stereo not drawn) [Example 30, (2E)-3-{2-[(4-chlorophenyl)thio]phenyl}-N-(4-hydroxycyclohexyl)acrylamide] | 3.4 | 289 | 66 | 86 to 88 | 
3 | COc1ccc(Sc2ccccc2/C=C/C(=O)NCCCCO)cc1 [Example 43, (2E)-N-(4-hydroxybutyl)-3-{2-[(4-methoxyphenyl)thio]phenyl}acrylamide] | 9.5 | 160 | 54 | 134 to 136 | 
4 | CC(C)CCSc1ccccc1/C=C/C(=O)NC1CCCCC1O (stereo not drawn) [Example 56, (2E)-N-(2-hydroxycyclohexyl)-3-{2-[(3-methylbutyl)thio]phenyl}acrylamide] | 8.3 | 276 | 169 |  | 
5 | CC(C)CCSc1ccccc1/C=C/C(=O)NCCCO [Example 57, (2E)-N-(3-hydroxypropyl)-3-{2-[(3-methylbutyl)thio]phenyl}acrylamide] | 8.4 | 303 | 200 |  | 
6 | CC(C)CCSc1ccccc1/C=C/C(=O)NCCCCO [Example 58, (2E)-N-(4-hydroxybutyl)-3-{2-[(3-methylbutyl)thio]phenyl}acrylamide] | 7.8 | 307 | 215 |  | 
7 | CC(C)CCSc1ccccc1/C=C/C(=O)NCCCCCO [Example 59, (2E)-N-(5-hydroxypentyl)-3-{2-[(3-methylbutyl)thio]phenyl}acrylamide] | 8.4 | 221 | 162 |  | 
8 | CC(C)CCSc1ccccc1/C=C/C(=O)N1CCC(O)CC1 [Example 60, 1-((2E)-3-{2-[(3-methylbutyl)thio]phenyl}-2-propenoyl)-4-piperidinol] | 8.3 | 165 | 115 |  | 
9 | CC(C)CCSc1ccccc1/C=C/C(=O)N1CCCC(O)C1 (stereo not drawn) [Example 61, 1-((2E)-3-{2-[(3-methylbutyl)thio]phenyl}-2-propenoyl)-3-piperidinol] | 10.2 | 165 | 103 |  | 
10 | CC(C)CCSc1ccccc1/C=C/C(=O)N1CCC(C(N)=O)CC1 [Example 63, 1-((2E)-3-{2-[(3-methylbutyl)thio]phenyl}-2-propenoyl)-4-piperidinecarboxamide] | 6.8 | 164 | 125 |  | 
11 | OCc1ccc(-c2nn(Cc3ccccc3)c3ccccc23)o1 [YC-1, 1-Benzyl-3-hydroxymethyl-2-furylindazole, reference compound] | 2.7 | 224 |  |  | 100
